Experimental data from patent US7265099B1, “Use of chemical chelators as reversal agents for drug-induced neuromuscular block” (Organon N.V., priority 1999, dated 2007).

Assays:
[1] = system: steady-state neuromuscular block induced by rocuronium bromide (Roc); assay: Reversal of neuromuscular blockade in vivo, anaesthetized guinea pig, rocuronium
Description: (§1) Male Dunkin-Hartley guinea pigs (bodyweight: 600–900 g) were anaesthetized by i.p. administration of 10 mg/kg pentobarbitone and 1000 mg/kg urethane. After tracheotomy, the animals were artificially ventilated using a Harvard small animal ventilator. A catheter was placed into the carotid artery for continuous monitoring of arterial blood pressure and the taking of blood samples for blood gas analysis. Heart rate was derived from the blood pressure signal. The sciatic nerve was stimulated (rectangular pulses of 0.5 ms duration at 10 s (0.1 Hz) intervals at a supramaximal voltage, using a Grass S88 Stimulator) and the force of M. gastrocnemius contractions was measured using a Grass FT03 force-displacement transducer. Contractions, blood pressure and heart rate were recorded on a multichannel Grass 7D recorder. Catheters were placed in both jugular veins. One catheter was used for the continuous infusion of a neuromuscular blocking agent. The infusion rate of the neuromuscular blocking agent was increased until a steady-state block of 85–90% was obtained. The other catheter was used for administration of increasing doses of the reversal agent. During continuous infusion of the neuromuscular blocking agent, single doses of increasing concentration of reversal agent were given. At the end of the experiment, the measured force of muscle contractions was plotted against the concentration of reversal agent, and using regression analysis techniques, the 50% reversal concentration was calculated.
Reversal of neuromuscular block in vivo, induced by rocuronium bromide, was carried out as described in Example 5.

[2] = system: neuromuscular block induced by rocuronium in isolated mouse hemidiaphragm; assay: Reversal of neuromuscular block in vitro: isolated mouse hemidiaphragm preparation; settings: for maximum reversal / EC50: rocuronium bromide 3.6 μM in the bath, 95% block; for maximum reversal / EC50 / concentration of chemical chelator at maximum reversal: mouse hemidiaphragm; for EC50: read-out: 50% reversal concentration; for Mouse hemidiaphragm: maximum reversal (%) / concentration of chemical chelator at maximum reversal: 3.1 μM rocuronium; for Reversal of the neuromuscular blocking action of rocuronium (in words): rocuronium-induced block
Description: Hemidiaphragms, with phrenic nerves attached, were removed from euthanized male mice (Institute of Cancer Research; bodyweight: 20–60 g). The preparations were mounted on a tissue holder and placed in a tissue bath filled with a modified Krebs-Henseleit solution (composition: 118 mM NaCl, 30 mM NaHCO3, 5 mM KCl, 1 mM KH2PO4, 1 mM MgSO4, 30 mM glucose and 2.5 mM CaCl2) at 37° C. and bubbled with 95% oxygen and 5% carbondioxide. One end of the preparation was connected with a siliconized silk suture to a Grass FT03 force-displacement transducer. An initial force of 10 mN was applied. The phrenic nerve was placed on a bipolar platinum electrode and was stimulated with rectangular pulses of 0.2 ms duration at 20 s (0.05 Hz) intervals at a supramaximal voltage, using a Grass S88 Stimulator. Contractions were recorded on a four channel Grass 79D recorder.
Increasing amounts of reversal agent were then administered into the bath at intervals of 10 min. The % maximum reversal was established. At the end of the experiment, the measured muscle contractions force was plotted against the concentration of reversal agent, and using regression analysis techniques, the 50% reversal concentration was calculated.
After induction of neuromuscular block by rocuronium, the % maximum reversal produced by the addition of a number of γ-cyclodextrin derivatives (compounds 11–16), a cyclic octasaccharide comprising 4 rhamnosyl-mannopyranosyl units (compound 24), or a number of paracyclophane derivatives (compounds 17–21 and 23) are presented in Table II.
Reversal of neuromuscular block in vitro was carried out using the mouse hemidiaphragm preparation as described in Example 6.

[3] = system: steady-state neuromuscular block induced by vecuronium bromide (Vec); assay: Reversal of neuromuscular blockade in vivo, anaesthetized guinea pig, vecuronium; settings: Vec infusion, 85–90% block, anaesthetized guinea pigs, i.v. reversal agent; mean
Description: as §1

[4] = system: steady-state neuromuscular block induced by pancuronium bromide (Pan); assay: Reversal of neuromuscular blockade in vivo, anaesthetized guinea pig, pancuronium; settings: Pan infusion, 85–90% block, anaesthetized guinea pigs, i.v. reversal agent; mean
Description: as §1

[5] = system: steady-state neuromuscular block induced by suxamethonium chloride (Sux; succinylcholine); assay: Reversal of neuromuscular blockade in vivo, anaesthetized guinea pig, suxamethonium; settings: Sux infusion, 85–90% block, anaesthetized guinea pigs, i.v. reversal agent; mean
Description: as §1

[6] = system: steady-state neuromuscular block induced by rapacuronium bromide (Rap; Org 9487); assay: Reversal of neuromuscular blockade in vivo, anaesthetized guinea pig, rapacuronium; settings: Rap infusion, 85–90% block, anaesthetized guinea pigs, i.v. reversal agent; mean
Description: as §1

[7] = rocuronium bromide, anaesthetised guinea pig, as in Example 5
[8] = Roc infusion, 85–90% block, anaesthetized guinea pigs, i.v. reversal agent, mean

Compound | Mouse hemidiaphragm: maximum reversal (%) [2] [%] | concentration of chemical chelator at maximum reversal [2] [µM] | Dose (ED50) producing 50% reversal of steady-state neuromuscular block [3] | Dose (ED50) producing 50% reversal of steady-state neuromuscular block [1, 8] | other results
O=S(=O)(O)c1cc2c(O)c(c1)Cc1cc(S(=O)(=O)O)cc(c1O)Cc1cc(S(=O)(=O)O)cc(c1O)Cc1cc(S(=O)(=O)O)cc(c1O)Cc1cc(S(=O)(=O)O)cc(c1O)Cc1cc(S(=O)(=O)O)cc(c1O)Cc1cc(S(=O)(=O)O)cc(c1O)Cc1cc(S(=O)(=O)O)cc(c1O)C2 [4-sulfonic calix[8]arene] | – | – | – | – | Dose (ED50) producing 50% reversal of steady-state neuromuscular block [1, 7]: 34 µmol/kg; maximum reversal [2]: 124%; EC50 [2]: 36 µM
O=C(O)CCCC(=O)N1CCCCCN(C(=O)CCCC(=O)O)c2ccc(cc2)Cc2ccc(cc2)N(C(=O)CCCC(=O)O)CCCCCN(C(=O)CCCC(=O)O)c2ccc(cc2)Cc2ccc1cc2 [Compound 20, N, N′, N″, N′″-Tetrakis(4-carboxybutyryl)-1,7, 21, 27-tetraaza[7.1.7.1] paracyclophane] | 8.7 | 72 | – | – | –
O=C(O)c1cc2ccc1OCc1ccc(cc1)COc1ccc(cc1C(=O)O)Cc1ccc(c(C(=O)O)c1)OCc1ccc(cc1)COc1ccc(cc1C(=O)O)C2 [Compound 18, 1,10,24,33-tetraoxa-12,20,35,43-tetracarboxy-[2.2.1.2.2.1]paracyclophane] | 61 | 288 | – | – | Reversal of the neuromuscular blocking action of rocuronium (in words) [2]: efficiently blocked
OC[C@H]1O[C@@H]2O[C@H]3[C@H](O)[C@@H](O)[C@@H](O[C@H]4[C@H](O)[C@@H](O)[C@@H](O[C@H]5[C@H](O)[C@@H](O)[C@@H](O[C@H]6[C@H](O)[C@@H](O)[C@@H](O[C@H]7[C@H](O)[C@@H](O)[C@@H](O[C@H]1[C@H](O)[C@H]2O)O[C@@H]7CO)O[C@@H]6CO)O[C@@H]5CO)O[C@@H]4CO)O[C@@H]3CO [Compound 1, α-cyclodextrin] | – | – | 2610 (1) μmol.kg^−1 | 1575 (2) μmol.kg^−1 | –
carboxymethyl-β-CD (DS = 3.5) [Compound 2] | – | – | 800 (1) μmol.kg^−1 | 134 (2) μmol.kg^−1 | –
O=C(O)c1cc2ccc1OCCCCCOc1ccc(cc1C(=O)O)Cc1ccc(c(C(=O)O)c1)OCCCCCOc1ccc(cc1C(=O)O)C2 [Compound 17, 1,7,21,27-tetraoxa-9,17,29,37-tetracarboxy[7.1.7.1]paracyclophane] | 11 | 360 | – | – | –
2-hydroxy-3-trimethylammonio propyl-β-CD (DS = 3.5) [Compound 3] | – | – | 1400 (1) μmol.kg^−1 | 518 (2) μmol.kg^−1 | –
2-hydroxypropyl-β-CD [Compound 10] | – | – | 1598 (4) μmol.kg^−1 | 33 (3) μmol.kg^−1 | –
β-cyclodextrin-phosphate sodium salt (DS = 3) [Compound 5] | – | – | – | 280 (3) μmol.kg^−1 | –
per 2,6-dimethyl-β-CD (DS = 12.6) [Compound 4] | – | – | 1313 (4) μmol.kg^−1 | 70 (2) μmol.kg^−1 | –
O=C(O)CCC(=O)N1CCCCCN(C(=O)CCC(=O)O)c2ccc(cc2)Cc2ccc(cc2)N(C(=O)CCC(=O)O)CCCCCN(C(=O)CCC(=O)O)c2ccc(cc2)Cc2ccc1cc2 [Compound 21, N, N′,N″, N′″-Tetrakis(3-carboxypropionyl)-1,7, 21, 27-tetraaza[7.1.7.1]para-cyclophane] | 0 | 360 | – | – | –
carboxyethyl-β-CD (DS = 3) [Compound 8] | – | – | 103 (2) μmol.kg^−1 | 42 (3) μmol.kg^−1 | Dose (ED50) producing 50% reversal of steady-state neuromuscular block [4]: 479 (2) μmol.kg^−1; Dose (ED50) producing 50% reversal of steady-state neuromuscular block [5]: 408 (2) μmol.kg^−1; Dose (ED50) producing 50% reversal of steady-state neuromuscular block [6]: 412 (2) μmol.kg^−1
β-cyclodextrin-phosphate sodium salt (DS = 8) [Compound 6] | – | – | – | 120 (2) μmol.kg^−1 | –
O=C(O)CCC(=O)N1CC2CCC(CC2)CN(C(=O)CCC(=O)O)c2ccc(cc2)Cc2ccc(cc2)N(C(=O)CCC(=O)O)CC2CCC(CC2)CN(C(=O)CCC(=O)O)c2ccc(cc2)Cc2ccc1cc2 [Compound 23, N, N′, N″, N′″-Tetra (3-carboxypropionyl)-3,4,5,6,7,8,26,27,28,29,30,31-dodecahydro-1,10,24,33-tetraaza[2.2.1.2.2.1]paracyclophane] | 90 | 58 | – | – | Reversal of the neuromuscular blocking action of rocuronium (in words) [2]: efficiently blocked
O=S(=O)(O)c1cc2c(O)c(c1)Cc1cc(S(=O)(=O)O)cc(c1O)Cc1cc(S(=O)(=O)O)cc(c1O)Cc1cc(S(=O)(=O)O)cc(c1O)Cc1cc(S(=O)(=O)O)cc(c1O)Cc1cc(S(=O)(=O)O)cc(c1O)C2 [4-sulfonic calix[6]arene, 4-Sulfonic calix[6]arene] | – | – | – | – | Dose (ED50) producing 50% reversal of steady-state neuromuscular block [1, 7]: 5.1 µmol/kg; maximum reversal [2]: 120%; EC50 [2]: 34 µM
carboxymethyl-β-CD (DS 3–3.5) [Compound 7] | – | – | – | 139 (3) μmol.kg^−1 | –
O=C(O)CC(=O)N1CCCCCN(C(=O)CC(=O)O)c2ccc(cc2)Cc2ccc(cc2)N(C(=O)CC(=O)O)CCCCCN(C(=O)CC(=O)O)c2ccc(cc2)Cc2ccc1cc2 [Compound 19, N, N′, N″, N′″-Tetrakis(carboxyacetyl)-1,7, 21, 27-tetraaza[7.1.7.1] paracyclophane] | 2.4 | 108 | – | – | –
cyclo[(1–4)-α-L-rhamnopyranosyl-(1–4)-α-D-mannopyranosyl]-tetraoside [Compound 24] | 86 | 288 | – | – | Reversal of the neuromuscular blocking action of rocuronium (in words) [2]: efficiently blocked; Reversal of the neuromuscular blocking action of rocuronium (in words) ([2]; listed as cyclo-[(1–4)-α-L-rhamno-pyranosyl-(1–4)-α-D-mannopyranosyl]tetraoside): effective
γ-cyclodextrin-phospate sodium salt (DS = 7) [Compound 12] | 17 | 360 | – | 52 (2) μmol.kg^−1 | –
